How the values were obtained:
giant foxtail [1] = experiment: Test A preemergence; type: in vivo, Setaria faberii; conditions: for Foxtail, Giant plant response rating (0 to 100 scale): 125 g ai/ha; for Foxtail, Giant plant response rating: 500 g ai/ha, 0 to 100 scale where 0 is no effect and 100 is complete control
How it was run: (§1)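 Scoring: eye-based comparison with untreated controls, 0 for no effect through 100 for complete control, at about day 10. Treatments: directed soil spray preemergence; foliar spray postemergence on 2–10 cm plants at the one- to two-leaf stage. Medium: loam soil with sand.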

wheat = experiment: Test A preemergence; type: in vivo, Triticum aestivum; conditions: for Wheat plant response rating (0 to 100 scale): 125 g ai/ha
How it was run: as §1

corn = experiment: Test A preemergence; type: in vivo, Zea mays; conditions: for Corn plant response rating (0 to 100 scale): 125 g ai/ha; for Corn plant response rating: 500 g ai/ha, 0 to 100 scale where 0 is no effect and 100 is complete control
How it was run: as §1

large (Lg) crabgrass = experiment: Test A postemergence; type: in vivo, Digitaria sanguinalis; conditions: 0 to 100 scale where 0 is no effect and 100 is complete control; for Crabgrass, Large plant response rating: 125 g ai/ha; for Plant response rating, Crabgrass, Large: 500 g ai/ha
How it was run: as §1

giant foxtail [2] = experiment: Test A postemergence; type: in vivo, Setaria faberii; conditions: 0 to 100 scale where 0 is no effect and 100 is complete control; for Foxtail, Giant plant response rating: 125 g ai/ha; for Plant response rating, Foxtail, Giant: 500 g ai/ha
How it was run: as §1

pigweed = experiment: Test A postemergence; type: in vivo, Amaranthus retroflexus; conditions: 0 to 100 scale where 0 is no effect and 100 is complete control; for Pigweed plant response rating: 125 g ai/ha; for Plant response rating, Pigweed: 500 g ai/ha
How it was run: as §1

rice = experiment: Test B flooded paddy test; type: in vivo, Oryza sativa; conditions: Flood, 250 g ai/ha; 0 to 100 scale where 0 is no effect and 100 is complete control
How it was run: (§2)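 Evaluation is visual, against untreated controls, 13 to 15 days after treatment. Before treatment, plants reached the 2-leaf stage; pots were then flooded 3 cm deep, compound was added to the water, and that level was maintained. Ratings run 0 to 100, with 100 meaning complete control.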

sedge, umbrella = experiment: Test B flooded paddy test; type: in vivo, Cyperus difformis; conditions: Flood, 250 g ai/ha; 0 to 100 scale where 0 is no effect and 100 is complete control
How it was run: as §2

barnyardgrass = experiment: Test B flooded paddy test; type: in vivo, Echinochloa crus-galli; conditions: Flood, 250 g ai/ha; 0 to 100 scale where 0 is no effect and 100 is complete control
How it was run: as §2

Italian ryegrass = experiment: Test C postemergence; type: in vivo, Lolium multiflorum; conditions: for Plant response rating (0 to 100), Ryegrass, Italian: 16 g ai/ha, 0 is no effect, 100 is complete control; for Ryegrass, Italian plant response rating: 31 g ai/ha; for Ryegrass, Italian plant response rating / Plant response rating, Ryegrass, Italian: scale 0 to 100 (0 no effect, 100 complete control)
How it was run: (§3)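 Plants were kept under greenhouse conditions for 13–15 days following spray. Pre-emergent application went to soil (loam–sand), post-emergent to foliage at 1–4 leaves. Evaluation: visual, percent control against untreated checks.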

galium = experiment: Test C postemergence; type: in vivo, Galium aparine; conditions: for Plant response rating (0 to 100), Galium: 16 g ai/ha, 0 is no effect, 100 is complete control; for Galium plant response rating: 31 g ai/ha; for Galium plant response rating / Plant response rating, Galium: scale 0 to 100 (0 no effect, 100 complete control)
How it was run: as §3

lambsquarters = experiment: Test C postemergence; type: in vivo, Chenopodium album; conditions: for Plant response rating (0 to 100), Lambsquarters: 16 g ai/ha, 0 is no effect, 100 is complete control; for Lambsquarters plant response rating: 31 g ai/ha; for Lambsquarters plant response rating / Plant response rating, Lambsquarters: scale 0 to 100 (0 no effect, 100 complete control)
How it was run: as §3

soybean = experiment: Test C postemergence; type: in vivo, Glycine max; conditions: for Plant response rating (0 to 100), Soybean: 16 g ai/ha, 0 is no effect, 100 is complete control; for Soybean plant response rating: 31 g ai/ha; for Soybean plant response rating / Plant response rating, Soybean: scale 0 to 100 (0 no effect, 100 complete control)
How it was run: as §3

oilseed rape = experiment: Test C postemergence; type: in vivo, Brassica napus; conditions: for Plant response rating (0 to 100), Oilseed Rape: 16 g ai/ha, 0 is no effect, 100 is complete control; for Oilseed Rape plant response rating: 31 g ai/ha; for Oilseed Rape plant response rating / Plant response rating, Oilseed Rape: scale 0 to 100 (0 no effect, 100 complete control)
How it was run: as §3

waterhemp = experiment: Test C postemergence; type: in vivo, Amaranthus rudis; conditions: for Plant response rating (0 to 100), Waterhemp: 16 g ai/ha, 0 is no effect, 100 is complete control; for Waterhemp plant response rating: 31 g ai/ha; for Waterhemp plant response rating / Plant response rating, Waterhemp: scale 0 to 100 (0 no effect, 100 complete control)
How it was run: as §3

chickweed = experiment: Test C postemergence; type: in vivo, Stellaria media; conditions: for Plant response rating (0 to 100), Chickweed: 16 g ai/ha, 0 is no effect, 100 is complete control; for Chickweed plant response rating: 31 g ai/ha; for Chickweed plant response rating / Plant response rating, Chickweed: scale 0 to 100 (0 no effect, 100 complete control)
How it was run: as §3

[3] = postemergence, visual rating, 13 to 15 days
[4] = 125 g ai/ha, postemergence, visual rating
[5] = Postemergence, 62 g ai/ha, 13 to 15 days

`FC(F)(F)c1cnn(-c2c(Br)cccc2Oc2ncc(Cl)cn2)c1` [Compound 191] was tested, and the “Foxtail, Giant plant response rating (0 to 100 scale)” value (giant foxtail [1]) was 100, the “Foxtail, Giant plant response rating” value (giant foxtail [1]) was 100 and the “Wheat plant response rating (0 to 100 scale)” value (wheat) was 20. For the same compound, the “Wheat plant response rating” value (wheat; 500 g ai/ha, 0 to 100 scale where 0 is no effect and 100 is complete control) was 40, the “Corn plant response rating (0 to 100 scale)” value (corn) was 0 and the “Corn plant response rating” value (corn) was 30. The “Crabgrass, Large plant response rating” value (large (Lg) crabgrass) was 50, the “Plant response rating, Crabgrass, Large” value (large (Lg) crabgrass) was 90 and the “Foxtail, Giant plant response rating” value (giant foxtail [2]) was 50. For the same compound, the “Plant response rating, Foxtail, Giant” value (giant foxtail [2]) was 90, the “Pigweed plant response rating” value (pigweed) was 100 and the “Plant response rating, Pigweed” value (pigweed) was 100. The “Plant response rating, Rice” value (rice) was 0, the “Plant response rating, Sedge, Umbrella” value (sedge, umbrella) was 95 and the “Plant response rating, Barnyardgrass” value (barnyardgrass) was 40. The “Plant response rating (0 to 100), Ryegrass, Italian” value (Italian ryegrass; postemergence) was 0, the “Ryegrass, Italian plant response rating” value (Italian ryegrass; [3]) was 0 and the “Plant response rating, Ryegrass, Italian” value (Italian ryegrass; [4]) was 5. For the same compound, the “Plant response rating, Ryegrass, Italian” value (Italian ryegrass; Postemergence, 62 g ai/ha) was 5, the “Plant response rating (0 to 100), Galium” value (galium; postemergence) was 80 and the “Galium plant response rating” value (galium; [3]) was 80. The “Plant response rating, Galium” value (galium; [4]) was 98, the “Plant response rating, Galium” value (galium; Postemergence, 62 g ai/ha) was 98 and the “Plant response rating (0 to 100), Lambsquarters” value (lambsquarters; postemergence) was 85. For the same compound, the “Lambsquarters plant response rating” value (lambsquarters; [3]) was 60, the “Plant response rating, Lambsquarters” value (lambsquarters; [4]) was 95 and the “Plant response rating, Lambsquarters” value (lambsquarters; Postemergence, 62 g ai/ha) was 75. The “Plant response rating (0 to 100), Soybean” value (soybean; postemergence) was 40, the “Soybean plant response rating” value (soybean; [3]) was 55 and the “Plant response rating, Soybean” value (soybean; [4]) was 30. For the same compound, the “Plant response rating, Soybean” value (soybean; Postemergence, 62 g ai/ha) was 60, the “Plant response rating (0 to 100), Oilseed Rape” value (oilseed rape; postemergence) was 10 and the “Oilseed Rape plant response rating” value (oilseed rape; [3]) was 45. The “Plant response rating, Oilseed Rape” value (oilseed rape; [4]) was 50, the “Plant response rating, Oilseed Rape” value (oilseed rape; Postemergence, 62 g ai/ha) was 50 and the “Plant response rating (0 to 100), Waterhemp” value (waterhemp; postemergence) was 80. The “Waterhemp plant response rating” value (waterhemp; [3]) was 85, the “Plant response rating, Waterhemp” value (waterhemp; [4]) was 95 and the “Plant response rating, Waterhemp” value (waterhemp; Postemergence, 62 g ai/ha) was 95. The “Plant response rating (0 to 100), Chickweed” value (chickweed; postemergence) was 10, the “Chickweed plant response rating” value (chickweed; [3]) was 80 and the “Plant response rating, Chickweed” value (chickweed; [4]) was 98. For the same compound, the “Plant response rating, Chickweed” value (chickweed; Postemergence, 62 g ai/ha) was 80.

In the case of `FC(F)c1cnn(-c2c(Cl)cccc2Oc2ncc(Cl)cn2)c1` [Compound 192], the “Foxtail, Giant plant response rating (0 to 100 scale)” value (giant foxtail [1]) is reported as 100, the “Foxtail, Giant plant response rating” value (giant foxtail [1]) is reported as 100 and the “Wheat plant response rating (0 to 100 scale)” value (wheat) is reported as 0. For the same compound, the “Corn plant response rating (0 to 100 scale)” value (corn) was 0, the “Corn plant response rating” value (corn) was 50 and the “Crabgrass, Large plant response rating” value (large (Lg) crabgrass) was 50. For the same compound, the “Plant response rating, Crabgrass, Large” value (large (Lg) crabgrass) was 90, the “Foxtail, Giant plant response rating” value (giant foxtail [2]) was 70 and the “Plant response rating, Foxtail, Giant” value (giant foxtail [2]) was 90. For the same compound, the “Pigweed plant response rating” value (pigweed) was 100, the “Plant response rating, Pigweed” value (pigweed) was 100 and the “Plant response rating, Rice” value (rice) was 0. The “Plant response rating, Sedge, Umbrella” value (sedge, umbrella) was 85, the “Plant response rating, Barnyardgrass” value (barnyardgrass) was 0 and the “Plant response rating (0 to 100), Ryegrass, Italian” value (Italian ryegrass; postemergence) was 0. The “Ryegrass, Italian plant response rating” value (Italian ryegrass; [3]) was 0, the “Plant response rating, Ryegrass, Italian” value (Italian ryegrass; [4]) was 5 and the “Plant response rating, Ryegrass, Italian” value (Italian ryegrass; [5]) was 5. The “Plant response rating (0 to 100), Galium” value (galium; postemergence) was 60, the “Galium plant response rating” value (galium; [3]) was 80 and the “Plant response rating, Galium” value (galium; [4]) was 85. For the same compound, the “Plant response rating, Galium” value (galium; [5]) was 80, the “Plant response rating (0 to 100), Lambsquarters” value (lambsquarters; postemergence) was 10 and the “Lambsquarters plant response rating” value (lambsquarters; [3]) was 25. For the same compound, the “Plant response rating, Lambsquarters” value (lambsquarters; [4]) was 90, the “Plant response rating, Lambsquarters” value (lambsquarters; [5]) was 90 and the “Plant response rating (0 to 100), Soybean” value (soybean; postemergence) was 30. For the same compound, the “Soybean plant response rating” value (soybean; [3]) was 30, the “Plant response rating, Soybean” value (soybean; [4]) was 80 and the “Plant response rating, Soybean” value (soybean; [5]) was 75. The “Plant response rating (0 to 100), Oilseed Rape” value (oilseed rape; postemergence) was 10, the “Oilseed Rape plant response rating” value (oilseed rape; [3]) was 5 and the “Plant response rating, Oilseed Rape” value (oilseed rape; [4]) was 60. The “Plant response rating, Oilseed Rape” value (oilseed rape; [5]) was 60, the “Plant response rating (0 to 100), Waterhemp” value (waterhemp; postemergence) was 40 and the “Waterhemp plant response rating” value (waterhemp; [3]) was 50. The “Plant response rating, Waterhemp” value (waterhemp; [4]) was 85, the “Plant response rating, Waterhemp” value (waterhemp; [5]) was 65 and the “Plant response rating (0 to 100), Chickweed” value (chickweed; postemergence) was 45. For the same compound, the “Chickweed plant response rating” value (chickweed; [3]) was 50, the “Plant response rating, Chickweed” value (chickweed; [4]) was 60 and the “Plant response rating, Chickweed” value (chickweed; [5]) was 70.
